In US20250277012A1 (Protagonist Therapeutics, Inc., priority 2021, published 2025) one finds IC50, DC50 and Potency EC50 data, which are given here for 5 compounds.

The target of test [1] is T1, ferroportin (Homo sapiens, UniProt Q9NP59).
T1 sequence (Q9NP59 1-571): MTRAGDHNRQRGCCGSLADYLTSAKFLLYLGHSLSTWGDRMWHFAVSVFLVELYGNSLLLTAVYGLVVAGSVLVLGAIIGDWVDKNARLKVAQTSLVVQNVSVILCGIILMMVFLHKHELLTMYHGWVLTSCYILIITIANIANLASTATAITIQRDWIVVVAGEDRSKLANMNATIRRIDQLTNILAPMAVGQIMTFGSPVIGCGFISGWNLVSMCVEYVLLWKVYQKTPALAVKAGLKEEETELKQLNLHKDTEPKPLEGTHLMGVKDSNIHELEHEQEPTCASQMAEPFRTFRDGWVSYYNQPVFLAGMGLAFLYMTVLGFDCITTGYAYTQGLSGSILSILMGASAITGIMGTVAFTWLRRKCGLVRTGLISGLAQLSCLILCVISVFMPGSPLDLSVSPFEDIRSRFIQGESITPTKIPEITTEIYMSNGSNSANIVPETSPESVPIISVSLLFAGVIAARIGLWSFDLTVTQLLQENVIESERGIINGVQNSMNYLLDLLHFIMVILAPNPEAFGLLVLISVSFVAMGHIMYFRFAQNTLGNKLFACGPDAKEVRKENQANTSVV
Nature of the test: T47D cell-based ferroportin internalization assay in presence of mouse serum albumin (MSA). More on the design: a human breast carcinoma adherent cell line which endogenously expresses ferroportin; host or cells: T47D. In a few lines: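 Peptide potency for inducing ferroportin internalization was measured in T47D cells in the presence of serum albumin. Cells grown in RPMI with fetal bovine serum were seeded in 96-well plates at 80-100 k cells per well in 100 ul and rested overnight. Dilution series of test peptides were preincubated 30 min at room temperature, then added to the cells after the medium was aspirated.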

Test [2] addresses T1, ferroportin. Nature of the test: FPN activity assay: ferroportin-GFP internalization/degradation in HEK293 cells. The format is cell-based. More on the design: expressed in transfected cells. To be noted: read-out: FPN IC50. As for the experimental part:
Following internalization, the ferroporin protein is degraded.
A retro inverse peptide is a peptide with a reversed sequence in all D amino acids. An example is that Hy-Glu-Thr-His-NH2 becomes Hy-DHis-DThr-DGlu-NH2. The EC50 of these reference compounds for ferroportin internalization/degradation was determined according to the FPN activity assay described above. These peptides served as control standards.

Test [3] concerns the target human ferroportin (SLC40A1) fused in frame with the GFP protein (human) (UniProt Q9NP59). Description: cell-based or functional assay.
[4] abbreviates: T47D internalization assay in presence of mouse serum albumin (MSA), Table 6E.
The mark [5] stands for this setting: ferroportin-GFP internalization/degradation, HEK293 cells, Table 6E.

Like-named read-outs stand apart in the source and are kept apart here. Positions of bridges follow the written chain, without caps; N, C: chain ends. Non-standard residues stand in square brackets, D forms with d. Residues, ends and D or L forms follow the SMILES beside them. Groups on a side chain read outwards from the residue. *: point of attachment. X1 = C[N+](C)(CCNC(=O)CCCCCCCCCCCCCCCCC(=O)O)CC(=O)*; Bip = N[C@@H](Cc1ccc(-c2ccccc2)cc1)C(=O)O; C18 diacid = O=C(O)CCCCCCCCCCCCCCCCC(=O)*; Dip = N[C@H](C(=O)O)C(c1ccccc1)c1ccccc1; β3hF = N[C@H](CC(=O)O)Cc1ccccc1; NMeK = CN[C@@H](CCCCN)C(=O)O; Isovaleryl = CC(C)CC(=O)*; hCys = N[C@@H](CCS)C(=O)O; Dap = NC[C@H](N)C(=O)O; AEEA = NCCOCCOCC(=O)O; Ahx = NCCCCCC(=O)O

As for `CC(C)CC(=O)N[C@@H](CCC(=O)O)C(=O)N[C@H](C(=O)N[C@@H](Cc1c[nH]cn1)C(=O)N[C@H](C(=O)N1CCC[C@H]1C(=O)N[C@H]1CSSC[C@@H](C(=O)N(C)[C@@H](CCCCNC(=O)CCCCCNC(=O)C[N+](C)(C)CCNC(=O)CCCCCCCCCCCCCCCCC(=O)O)C(=O)N[C@@H](Cc2ccc(-c3ccccc3)cc2)C(=O)N[C@H](CCCCN)C(N)=O)NC1=O)C(c1ccccc1)c1ccccc1)[C@@H](C)O` [compound 183] (Isovaleryl-ETH[Dip]PCC[NMeK]([Ahx-X1])[Bip][dK]-NH2; disulfide 6-7), in test [1] (Table 6E, T47D internalization assay with MSA), the IC50 was in the range of 10 to 100 nM. Moreover, in test [2] (Table 6E, ferroportin-GFP internalization/degradation, at least 18 hours incubation), the DC50 lay within 10 to 100 nM.
As for `CC[C@H](C)[C@@H]1NC(=O)[C@@H](NC(=O)[C@@H]2CCCN2C(=O)[C@@H](NC(=O)[C@H](Cc2c[nH]cn2)NC(=O)[C@@H](NC(=O)[C@H](CCC(=O)O)NC(=O)CC(C)C)[C@@H](C)O)C(c2ccccc2)c2ccccc2)CSSC[C@@H](C(=O)N[C@H](CC(=O)N[C@@H](CCCCNC(=O)COCCOCCNC(=O)COCCOCCNC(=O)CCCCCNC(=O)CCCCCCCCCCCCCCCCC(=O)O)C(=O)N[C@H](CCCCN)C(N)=O)Cc2ccccc2)NC1=O` [Compd 27] (Isovaleryl-ETH[Dip]PCIC[β3hF]K([AEEA-AEEA-Ahx-C18 diacid])[dK]-NH2; disulfide 6-8), in test [1] (T47D cells, 0.5% mouse serum albumin, 1 hr incubation), the IC50 was 10 to 100 nM. Also, the DC50 in test [2] (ferroportin-GFP HEK293 cells, at least 18 hours) was in the range of 10 to 100 nM.
For the compound Hepcidin (ligand), the Potency EC50 in test [3] was 34 nM.
For the compound `CC(C)CC(=O)N[C@@H](CCC(=O)O)C(=O)N[C@H](C(=O)N[C@@H](Cc1c[nH]cn1)C(=O)N[C@H](C(=O)N1CCC[C@H]1C(=O)N[C@H]1CCSSCC[C@@H](C(=O)N[C@@H](CCCCNC(=O)COCCOCCNC(=O)COCCOCCNC(=O)[C@H](CN)NC(=O)CCCCCCCCCCCCCCCCC(=O)O)C(=O)N[C@H](CC(=O)N[C@H](CCCCN)C(N)=O)Cc2ccccc2)NC1=O)C(c1ccccc1)c1ccccc1)[C@@H](C)O` [compound 268] (Isovaleryl-ETH[Dip]P[hCys][hCys]K([AEEA-AEEA-Dap-C18 diacid])[β3hF][dK]-NH2; disulfide 6-7), the IC50 in test [1] (setting [4]) is 10 to 100 nM. Besides, in test [2] (setting [5]), the DC50 was in the range of 10 to 100 nM.
Consider `COC(=O)CC[C@H](NC(=O)CC(C)C)C(=O)N[C@H](C(=O)N[C@@H](Cc1c[nH]cn1)C(=O)N[C@H](C(=O)N1CCC[C@H]1C(=O)N[C@H]1CSSC[C@@H](C(=O)N(C)[C@@H](CCCCNC(=O)COCCOCCNC(=O)COCCOCCNC(=O)[C@H](CN)NC(=O)CCCCCCCCCCCCCCCCC(=O)O)C(=O)N[C@H](CC(=O)N[C@H](CCCCN)C(N)=O)Cc2ccccc2)NC1=O)C(c1ccccc1)c1ccccc1)[C@@H](C)O` [compound 305] (Isovaleryl-E(OMe)TH[Dip]PCC[NMeK]([AEEA-AEEA-Dap-C18 diacid])[β3hF][dK]-NH2; disulfide 6-7), for which the 50% inhibitory concentration (IC50) in test [1] (setting [4]) lay within 10 to 100 nM. Further, the DC50 in test [2] (setting [5]) lay in the range of 10 to 100 nM.

A word on the IC50: it is the concentration that inhibits the measured activity by half.
